Data set [1] is described as follows: Boiling point determination of ACAs. The class given is physicochemical. On the procedure:
Amine based reactive coalescing agents were synthesized via an atom efficient aza-Michael addition reaction of secondary amine to different acrylate/acrylamide monomers such as 2-hydroxyethyl acrylate, 2-hydroxypropyl acrylate, 2-ethylhexyl acrylate, ^nbutyl acrylate, and N-hydroxyethyl acrylamide etc (Table 1 and Scheme 2). The reactions were carried out neat or in water (in some cases, in the presence of 10% ceric ammonium nitrate (CAN) catalyst) at room temperature (RT)-80° C. to yield 80% to 95% conversion. Finally, the ACAs were purified by column chromatography and characterized by ^1H-NMR and ^13C-NMR spectroscopy, and elemental microanalysis (as will be shown in Examples 3.1 to 3.5). Other characterizations include determination of boiling point, volatility (% wt loss when heated at 110±5° C. for 1 hour as per USA EPA 24 method), and plasticizing effect, i.e. reduction of minimum film formation temperature (MFFT) of commercial latices.
Characterization studies were performed on the ACA examples to determine their boiling points and volatility (% wt loss when heated at 110±5° C. for 1 hour as per USA EPA 24 method).

Data set [2] in a line: Water solubility of ACAs (Table 1). The class given is physicochemical. The following applies: in water.
Data set [3] can be described thus: Accelerated release study: coalescing agent blended with latex IRS-129, film heated at 110° C., 1H NMR. The settings on record: 2 wt % in IRS-129 latex, dried 2 days at room temperature, powder heated at 110° C. in convection oven. On the procedure: At first, ACA4 (2 wt % with respect to latex) was first blended with IRS-129 latex (containing —COOH groups) using dispermat (LC75-E) and the mixture was allowed to dry at room temperature for 2 days. Then, the polymer film was grounded to make powder and then heated at 110° C. in a convection oven, i.e. accelerated evaporation (as illustrated in FIG. 6). Accelerated evaporation was used in this study instead as natural release is time consuming and gas analysis is difficult.
Samples were collected time to time, dissolved in NMR solvent and analyzed by ^1H NMR spectroscopy (with 25 mg of sample, 0.8 mL of CDCl3, and 25 μL of DMF/CDCl3 as internal standard). High boiling commercial coalescing agent, 1-Phenoxy-2-propanol (PPH) (b.p. 243° C.) was used as control.

A short description of data set [4]: Stabilization of polymer on heating. The settings on record: IRS-129 heated at 100° C. for 4 days.
For data set [5] the following is noted: commercial coalescing agent used as control; cited from earlier work.

Where two headings read alike, the source gives them in different places.

On to `CCOCCOCCOC(=O)CCN(Cc1ccccc1)Cc1ccccc1` [ACA16], for which the b.p. in data set [1] is 348-355 °C.

Consider `O=C(CCN(Cc1ccccc1)Cc1ccccc1)OCCO` [ACA4], for which the “Water Solubility” value in data set [2] is reported as below 0.06%. In addition, in data set [3], the “Presence of coalescing agent in polymer film after heating (1H NMR)” value was “remain present even after 4 days of heating”. In addition, the “Stabilisation of latex polymer against oxidation/coloration” value in data set [4] is listed as “helps to stabilise or reduce oxidation/coloration of the polymer”. Besides, the b.p. in data set [1] is 292-297 °C.

Regarding `CC(O)COc1ccccc1` (centres unmarked) [PPH, 1-Phenoxy-2-propanol, reference compound], in data set [3], the “Presence of coalescing agent in polymer film after heating (1H NMR)” value is reported as “completely evaporated out from the polymer after 2 days of heating”. Moreover, the b.p. in data set [5] was 243 °C.

Regarding `C=C(C)C(=O)OCCOC(=O)CCN(Cc1ccccc1)Cc1ccccc1` [ACA15], the b.p. in data set [1] is 251-254 °C.

The values are drawn from patent US12612525B2, “Amine compound, reactive coalescing agent, coating composition, coating layer and related methods” (Agency for Science, Technology and Research, priority 2020, dated 2026).
